Reference: patent US12637423B2, “Aziridinyl functional compound” (priority 2020, dated 2026)

Columns and labels:
[1] = tested on: Rtkn-GFP mouse embryonic stem (mES) reporter cell line; test: ToxTracker assay, Rtkn-GFP DNA damage reporter; type: cell-based
Method: (§1) This methodology uses a two step-approach.
(§2) Metabolic was evaluated by addition of S9 liver extract. […] Only GFP expression in intact single cells is determined.

[2] = tested on: Bscl2-GFP mouse embryonic stem (mES) reporter cell line; test: ToxTracker assay, Bscl2-GFP DNA damage reporter; type: cell-based
Method: as §1, §2

[3] = tested on: biomarkers Bscl2-GFP and Rtkn-GFP in mES reporter cell lines; test: ToxTracker assay, overall genotoxicity conclusion; type: cell-based, mouse; settings: Bscl2-GFP and Rtkn-GFP at 10, 25 and 50% cytotoxicity, absence and presence of rat S9
Method: as §1, §2

[4] = with S9 rat liver extract, at 10% cytotoxicity, 3 h exposure, 24 h recovery
[5] = with S9 rat liver extract, at 25% cytotoxicity, 3 h exposure, 24 h recovery
[6] = with S9 rat liver extract, at 50% cytotoxicity, 3 h exposure, 24 h recovery
[7] = without S9 rat liver extract, at 10% cytotoxicity, 24 h exposure
[8] = without S9 rat liver extract, at 25% cytotoxicity, 24 h exposure
[9] = without S9 rat liver extract, at 50% cytotoxicity, 24 h exposure

C=CC(=O)OCCOC(=O)NCCCCCCn1c(=O)n(CCCCCCNC(=O)OCCOC(=O)C=C)c(=O)n(CCCCCCNC(=O)OC(C)CN2CC2C)c1=O (stereo not shown) [Compound 1]
non-genotoxic: Genotoxicity conclusion (ToxTracker) [3]
1.2 fold: Bscl 2 GFP reporter induction level [2, 4] | Bscl 2 GFP reporter induction level [2, 5] | Bscl 2 GFP reporter induction level [2, 6] | Bscl 2 GFP reporter induction level [2, 8]
1.0 fold: Rtkn GFP reporter induction level [1, 4] | Rtkn GFP reporter induction level [1, 5] | Rtkn GFP reporter induction level [1, 6] | Rtkn GFP reporter induction level [1, 7] | Rtkn GFP reporter induction level [1, 8] | Rtkn GFP reporter induction level [1, 9] | Bscl 2 GFP reporter induction level [2, 7]
1.3 fold: Bscl 2 GFP reporter induction level [2, 9]
